Laboratory results: patent US9820943B2, “Micronized amoxicillin” (DSM SINOCHEM PHARMACEUTICALS NETHERLANDS B.V., priority 2013, dated 2017)

What was measured:
Assay type in all cases: physicochemical
[1] = Particle size distribution by laser diffraction (Malvern); conditions: trihydrate
Method: Particle size distribution values D10, D50, D90 and D100 were determined using laser diffraction applying Malvern equipment. A suitable apparatus for determining D10, D50, D90 and D100 is a Malvern particle sizer 2600 C or a Malvern Zeta Sizer.
(§1) Parameters operated were: • Augar Speed: 5-90 rpm • Primary Air Pressure: 2-8 kg·cm^−2 • Secondary Air Pressure: 4-10 kg·cm^−2 The surface area (in triplicate), average particle size and contact angle (in quadruplicate) were determined as outlined in the General section. The purity of the amoxicillin trihydrate samples was 99.4±0.3% and were void of dichloromethane, isopropanol, pivalic acid and triethyl amine.

[2] = Powder dissolution, USP/NF paddle method with HPLC analysis; conditions: 500 mg in 900 mL water, 37 °C, 75 rpm; for Amoxicillin released in solution Mean: mean of 3; for Amoxicillin released in solution #1: replicate #1; for Amoxicillin released in solution #2: replicate #2; for Amoxicillin released in solution #3: replicate #3
Method: Dissolution analysis of amoxicillin trihydrate powder samples was carried out using the USP/NF paddle method at a rotational speed of 75 rpm. Ultrapure ELGA laboratory water (900 mL) was used as dissolution medium. Media were equilibrated to 37.0±0.5° C. prior to dissolution. Amoxicillin trihydrate sample powder (500 mg) was directly added to the dissolution apparatus (Electrolab USP-24, India). Samples were collected at 0, 1, 3, 5, 10, 15, 30, 60 and 90 min, filtered through 0.2 μm filters and analyzed by HPLC. Dissolution profiles were constructed by plotting the percentage amoxicillin released against time.
The HPLC system (Shimadzu Corporation, Kyoto, Japan) comprised of an SCL-10A VP system controller, LC-10AT VP liquid chromatograph, FCV-10AL VP flow control valve, DGU-14A degasser, SIL-10AD VP auto-injector, CTO-10AS VP column oven, SPD-M20A prominence diode array (PDA) detector and data acquisition Class-VP 6.10 software. The HPLC method was adopted from the United States Pharmacopoeia (USP). The method was validated for linearity, precision, accuracy and intra- and inter-day variability. The mobile phase was 50 mM monobasic potassium phosphate:methanol (96:4, v/v, pH 5.0). All analyses were carried out using Lichrospher® 100 RP-18e analytical column (5 μm, Merck KGaA, Darmstadt, Germany) under isocratic conditions at a flow rate of 1.0 mL·min^−1 at 25° C. with 20 μL injection volume. Effluent was monitored at a wavelength of 230 nm. Samples for calibration curve generation were prepared in 50 mM monobasic potassium phosphate:methanol 1:1 (v/v) proportion at a concentration range of 1 to 600 μg·mL^−1.
The three non-micronized (i.e. entries 1-3 of Table 1) and micronized (i.e. entries 4-6 of Table 1) amoxicillin trihydrate samples of Example 1 were subjected to a powder dissolution test (in triplicate) as outlined in the General section.

[3] = Contact angle by sessile drop method (water); conditions: ambient conditions, trihydrate
Method: Contact angles of amoxicillin trihydrate powder samples were measured by the sessile drop method using an Drop Shape Analyzer instrument (FTA 1000, First Ten Angstrom, Virginia, USA). Powder samples were mounted on double sided adhesive tape adhered to a glass slide and excess powder was removed by tapping the slide. A drop of probe liquid (water) was dispersed onto the sample surface and video images were captured by the FTA image analyzer. The contact angle was calculated by the instrument by fitting a mathematical expression to the shape of the drop followed by calculating the slope of the tangent to the drop at the liquid-solid-vapor interface line. The surface tension of ultrapure ELGA laboratory water was measured to be 73±0.5 mN·m^−1 at 25° C. All measurements were performed in air under ambient conditions and an average of four measurements was reported in the below Examples.
as §1

[4] = Specific powder surface area by nitrogen gas sorption (BET); conditions: triplicate, trihydrate
Method: Specific powder surface area was determined using nitrogen gas sorption (Smartsorb, Smart Instruments, Mumbai, India). Prior to measurements, samples were regenerated by degassing to remove moisture and contamination. The regenerated sample was dipped in liquid nitrogen and the quantity of the adsorbed gas was measured using a thermal conductivity detector and subsequently integrated using an electronic circuit in terms of counts. The instrument was calibrated by injecting a known quantity of nitrogen. The measured parameters were subsequently used to calculate the surface area of the sample by employing the adsorption theories of Brunauer, Emmett and Teller (BET).
as §1

Structure (SMILES): CC1(C)S[C@@H]2[C@H](NC(=O)[C@H](N)c3ccc(O)cc3)C(=O)N2[C@H]1C(=O)O.O.O.O [entry 3, amoxicillin trihydrate]
- Average Particle Size D10 [1]: 13.1 μm
- Average Particle Size D50 [1]: 39.3 μm
- Average Particle Size D90 [1]: 91.7 μm
- Average Particle Size D100 [1]: 230.1 μm
- Amoxicillin released in solution Mean ([2]; 0 min): 0%
- Amoxicillin released in solution #1 ([2]; 0 min): 0%
- Amoxicillin released in solution #2 ([2]; 0 min): 0%
- Amoxicillin released in solution #3 ([2]; 0 min): 0%
- Amoxicillin released in solution Mean ([2]; 1 min, trihydrate): 59.73%
- Amoxicillin released in solution #1 ([2]; 1 min, trihydrate): 57.32%
- Amoxicillin released in solution #2 ([2]; 1 min, trihydrate): 60.63%
- Amoxicillin released in solution #3 ([2]; 1 min, trihydrate): 61.23%
- Amoxicillin released in solution Mean ([2]; 3 min, trihydrate): 97.65%
- Amoxicillin released in solution #1 ([2]; 3 min, trihydrate): 96.94%
- Amoxicillin released in solution #2 ([2]; 3 min, trihydrate): 97.25%
- Amoxicillin released in solution #3 ([2]; 3 min, trihydrate): 98.77%
- Amoxicillin released in solution Mean ([2]; 5 min, trihydrate): 99.78%
- Amoxicillin released in solution #1 ([2]; 5 min, trihydrate): 99.68%
- Amoxicillin released in solution #2 ([2]; 5 min, trihydrate): 100.87%
- Amoxicillin released in solution #3 ([2]; 5 min, trihydrate): 98.80%
- Amoxicillin released in solution Mean ([2]; 10 min, trihydrate): 99.25%
- Amoxicillin released in solution #1 ([2]; 10 min, trihydrate): 99.06%
- Amoxicillin released in solution #2 ([2]; 10 min, trihydrate): 99.42%
- Amoxicillin released in solution #3 ([2]; 10 min, trihydrate): 99.27%
- Amoxicillin released in solution Mean ([2]; 15 min, trihydrate): 100.29%
- Amoxicillin released in solution #1 ([2]; 15 min, trihydrate): 100.69%
- Amoxicillin released in solution #2 ([2]; 15 min, trihydrate): 100.64%
- Amoxicillin released in solution #3 ([2]; 15 min, trihydrate): 99.55%
- Amoxicillin released in solution Mean ([2]; 30 min, trihydrate): 99.18%
- Amoxicillin released in solution #1 ([2]; 30 min, trihydrate): 99.21%
- Amoxicillin released in solution #2 ([2]; 30 min, trihydrate): 99.18%
- Amoxicillin released in solution #3 ([2]; 30 min, trihydrate): 99.14%
- Amoxicillin released in solution Mean ([2]; 60 min, trihydrate): 100.16%
- Amoxicillin released in solution #1 ([2]; 60 min, trihydrate): 99.14%
- Amoxicillin released in solution #2 ([2]; 60 min, trihydrate): 100.41%
- Amoxicillin released in solution #3 ([2]; 60 min, trihydrate): 100.92%
- Amoxicillin released in solution Mean ([2]; 90 min, trihydrate): 99.44%
- Amoxicillin released in solution #1 ([2]; 90 min, trihydrate): 99.58%
- Amoxicillin released in solution #2 ([2]; 90 min, trihydrate): 99.28%
- Amoxicillin released in solution #3 ([2]; 90 min, trihydrate): 99.46%
- Contact Angle Mean ± SD (n = 4) [3]: 71.54 ± 1.08
- Surface Area Mean ± SD (n = 3) [4]: 0.72 ± 0.16 m^2 · g^−1

Structure (SMILES): CC1(C)S[C@@H]2[C@H](NC(=O)[C@H](N)c3ccc(O)cc3)C(=O)N2[C@H]1C(=O)O.O.O.O [entry 4, amoxicillin trihydrate]
- Average Particle Size D10 [1]: 1.9 μm
- Average Particle Size D50 [1]: 10.1 μm
- Average Particle Size D90 [1]: 23.1 μm
- Average Particle Size D100 [1]: 44.6 μm
- Amoxicillin released in solution Mean ([2]; 0 min): 0%
- Amoxicillin released in solution #1 ([2]; 0 min): 0%
- Amoxicillin released in solution #2 ([2]; 0 min): 0%
- Amoxicillin released in solution #3 ([2]; 0 min): 0%
- Amoxicillin released in solution Mean ([2]; 1 min, trihydrate): 56.64%
- Amoxicillin released in solution #1 ([2]; 1 min, trihydrate): 54.49%
- Amoxicillin released in solution #2 ([2]; 1 min, trihydrate): 57.74%
- Amoxicillin released in solution #3 ([2]; 1 min, trihydrate): 57.67%
- Amoxicillin released in solution Mean ([2]; 3 min, trihydrate): 77.11%
- Amoxicillin released in solution #1 ([2]; 3 min, trihydrate): 76.32%
- Amoxicillin released in solution #2 ([2]; 3 min, trihydrate): 76.89%
- Amoxicillin released in solution #3 ([2]; 3 min, trihydrate): 78.12%
- Amoxicillin released in solution Mean ([2]; 5 min, trihydrate): 84.17%
- Amoxicillin released in solution #1 ([2]; 5 min, trihydrate): 85.25%
- Amoxicillin released in solution #2 ([2]; 5 min, trihydrate): 82.78%
- Amoxicillin released in solution #3 ([2]; 5 min, trihydrate): 84.47%
- Amoxicillin released in solution Mean ([2]; 10 min, trihydrate): 87.43%
- Amoxicillin released in solution #1 ([2]; 10 min, trihydrate): 88.15%
- Amoxicillin released in solution #2 ([2]; 10 min, trihydrate): 86.80%
- Amoxicillin released in solution #3 ([2]; 10 min, trihydrate): 87.34%
- Amoxicillin released in solution Mean ([2]; 15 min, trihydrate): 89.71%
- Amoxicillin released in solution #1 ([2]; 15 min, trihydrate): 90.61%
- Amoxicillin released in solution #2 ([2]; 15 min, trihydrate): 89.05%
- Amoxicillin released in solution #3 ([2]; 15 min, trihydrate): 89.49%
- Amoxicillin released in solution Mean ([2]; 30 min, trihydrate): 93.77%
- Amoxicillin released in solution #1 ([2]; 30 min, trihydrate): 93.27%
- Amoxicillin released in solution #2 ([2]; 30 min, trihydrate): 95.75%
- Amoxicillin released in solution #3 ([2]; 30 min, trihydrate): 91.85%
- Amoxicillin released in solution Mean ([2]; 60 min, trihydrate): 98.50%
- Amoxicillin released in solution #1 ([2]; 60 min, trihydrate): 97.15%
- Amoxicillin released in solution #2 ([2]; 60 min, trihydrate): 99.70%
- Amoxicillin released in solution #3 ([2]; 60 min, trihydrate): 98.65%
- Amoxicillin released in solution Mean ([2]; 90 min, trihydrate): 99.31%
- Amoxicillin released in solution #1 ([2]; 90 min, trihydrate): 97.76%
- Amoxicillin released in solution #2 ([2]; 90 min, trihydrate): 99.52%
- Amoxicillin released in solution #3 ([2]; 90 min, trihydrate): 100.66%
- Contact Angle Mean ± SD (n = 4) [3]: 110.68 ± 0.23
- Surface Area Mean ± SD (n = 3) [4]: 1.78 ± 0.03 m^2 · g^−1
